# Data from article PMC11631053, “A receptor-based assay to study the sweet and bitter tastes of sweeteners and binary sweet blends: the SWEET project” (Chemical Senses, 2024).
# Where “and” joins values, the source holds several entries; their conditions need not be identical. Identical values can stand only once. Like-named read-outs stand apart in the source and are kept apart here. Marks after values point to notes of the source that are not given here.
# Assays:
# TAS2R50 = molecular target: T1, TAS2R50 (Homo sapiens, UniProt P59544); assay: Calcium mobilization assay, HEK293T-Gα16gust44 cells expressing TAS2R50; conditions: maximal concentration tested: sucralose 100 mM, neotame 30 µM, Ace-K 300 mM, RebA 4 mM, RebM 4 mM, mogroside V 5 mM, erythritol 200 mM, D-allulose 500 mM, thaumatin 100 mM
# T1 sequence (P59544 1-299): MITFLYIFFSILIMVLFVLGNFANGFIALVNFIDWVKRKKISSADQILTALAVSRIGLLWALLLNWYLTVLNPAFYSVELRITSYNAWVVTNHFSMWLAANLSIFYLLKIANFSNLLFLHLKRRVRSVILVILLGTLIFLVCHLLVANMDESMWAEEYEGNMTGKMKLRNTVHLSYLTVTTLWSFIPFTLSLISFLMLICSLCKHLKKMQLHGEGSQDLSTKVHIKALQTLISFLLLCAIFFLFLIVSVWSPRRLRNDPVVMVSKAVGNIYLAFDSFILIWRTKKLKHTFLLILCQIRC
# Description: (§1) Different concentration ranges were tested depending on the injected sweet compound. […] All of the concentration-receptor combinations were measured in triplicate, and each experiment was repeated at least 3 times. The Ca^2+ change was expressed as a fractional change in fluorescent light intensity: ΔF/F = (F − F0)/F0, where F was the fluorescent light intensity at each point, and F0 was the value of fluorescent light emitted prior to stimulus application. To calculate dose–response relationships, the changes in fluorescence upon stimulus application were averaged, mock-subtracted and baseline-corrected. The resulting obtained dose–response data were adjusted by using a 4-parameter logistic equation. The half-maximal effective concentration (EC50) was calculated by using SigmaPlot software (Systat Software, San Jose, CA, USA) as described in supplemental Supplementary Figs. S1, S2, and S3.
# [1] = sucrose = 1, cited from earlier work
# TAS2R3 = molecular target: T2, TAS2R3 (Homo sapiens, UniProt Q9NYW6); assay: Calcium mobilization assay, HEK293T-Gα16gust44 cells expressing TAS2R3; conditions: maximal concentration tested: sucralose 100 mM, neotame 30 µM, Ace-K 300 mM, RebA 4 mM, RebM 4 mM, mogroside V 5 mM, erythritol 200 mM, D-allulose 500 mM, thaumatin 100 mM
# T2 sequence (Q9NYW6 1-316): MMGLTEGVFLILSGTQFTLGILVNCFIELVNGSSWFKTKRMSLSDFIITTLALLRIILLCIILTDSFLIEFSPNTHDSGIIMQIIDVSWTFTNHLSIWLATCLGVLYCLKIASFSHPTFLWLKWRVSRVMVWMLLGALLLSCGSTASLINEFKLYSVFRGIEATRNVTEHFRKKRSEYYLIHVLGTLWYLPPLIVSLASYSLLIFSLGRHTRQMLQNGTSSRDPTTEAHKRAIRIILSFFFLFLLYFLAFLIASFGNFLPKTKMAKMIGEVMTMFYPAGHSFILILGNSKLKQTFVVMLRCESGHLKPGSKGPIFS
# Description: as §1
# TAS2R5 = molecular target: T3, TAS2R5 (Homo sapiens, UniProt Q9NYW4); assay: Calcium mobilization assay, HEK293T-Gα16gust44 cells expressing TAS2R5; conditions: maximal concentration tested: sucralose 100 mM, neotame 30 µM, Ace-K 300 mM, RebA 4 mM, RebM 4 mM, mogroside V 5 mM, erythritol 200 mM, D-allulose 500 mM, thaumatin 100 mM
# T3 sequence (Q9NYW4 1-299): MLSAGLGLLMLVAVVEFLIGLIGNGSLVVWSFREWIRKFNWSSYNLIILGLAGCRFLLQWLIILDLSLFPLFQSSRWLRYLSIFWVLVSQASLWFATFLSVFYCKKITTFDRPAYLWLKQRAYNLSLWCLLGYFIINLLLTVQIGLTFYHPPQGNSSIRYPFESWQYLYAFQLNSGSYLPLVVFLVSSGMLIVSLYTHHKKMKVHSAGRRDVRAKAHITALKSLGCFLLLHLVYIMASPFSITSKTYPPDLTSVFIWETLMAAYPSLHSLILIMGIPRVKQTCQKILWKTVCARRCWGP
# Description: as §1
# TAS2R19 = molecular target: T4, TAS2R19 (Homo sapiens, UniProt P59542); assay: Calcium mobilization assay, HEK293T-Gα16gust44 cells expressing TAS2R19; conditions: maximal concentration tested: sucralose 100 mM, neotame 30 µM, Ace-K 300 mM, RebA 4 mM, RebM 4 mM, mogroside V 5 mM, erythritol 200 mM, D-allulose 500 mM, thaumatin 100 mM
# T4 sequence (P59542 1-299): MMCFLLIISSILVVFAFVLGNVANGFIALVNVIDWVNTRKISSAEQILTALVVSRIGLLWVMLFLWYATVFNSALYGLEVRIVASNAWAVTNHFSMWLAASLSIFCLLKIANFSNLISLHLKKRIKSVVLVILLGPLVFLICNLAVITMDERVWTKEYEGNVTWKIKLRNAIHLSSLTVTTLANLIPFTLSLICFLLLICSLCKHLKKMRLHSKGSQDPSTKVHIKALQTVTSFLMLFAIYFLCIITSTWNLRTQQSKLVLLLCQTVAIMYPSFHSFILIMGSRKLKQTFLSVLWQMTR
# Description: (§2) Different concentration ranges were tested depending on the injected sweet compound. […] All of the concentration-receptor combinations were measured in triplicate, and each experiment was repeated at least 3 times. The Ca^2+ change was expressed as a fractional change in fluorescent light intensity: ΔF/F = (F − F0)/F0, where F was the fluorescent light intensity at each point, and F0 was the value of fluorescent light emitted prior to stimulus application. To calculate dose–response relationships, the changes in fluorescence upon stimulus application were averaged, mock-subtracted and baseline-corrected. The resulting obtained dose–response data were adjusted by using a 4-parameter logistic equation.
# TAS2R4 = molecular target: T5, TAS2R4 (Homo sapiens, UniProt Q9NYW5); assay: Calcium mobilization assay, HEK293T-Gα16gust44 cells expressing TAS2R4; conditions: maximal concentration tested: sucralose 100 mM, neotame 30 µM, Ace-K 300 mM, RebA 4 mM, RebM 4 mM, mogroside V 5 mM, erythritol 200 mM, D-allulose 500 mM, thaumatin 100 mM
# T5 sequence (Q9NYW5 1-299): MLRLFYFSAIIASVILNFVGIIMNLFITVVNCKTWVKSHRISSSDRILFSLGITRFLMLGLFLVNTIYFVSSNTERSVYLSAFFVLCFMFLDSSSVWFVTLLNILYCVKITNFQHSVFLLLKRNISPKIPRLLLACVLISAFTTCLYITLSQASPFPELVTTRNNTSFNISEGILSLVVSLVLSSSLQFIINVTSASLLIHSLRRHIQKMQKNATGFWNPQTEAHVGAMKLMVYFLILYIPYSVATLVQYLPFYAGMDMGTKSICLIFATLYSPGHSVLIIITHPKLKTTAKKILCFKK
# Description: as §1
# TAS2R42 = molecular target: T6, TAS2R42 (Homo sapiens, UniProt Q7RTR8); assay: Calcium mobilization assay, HEK293T-Gα16gust44 cells expressing TAS2R42; conditions: maximal concentration tested: sucralose 100 mM, neotame 30 µM, Ace-K 300 mM, RebA 4 mM, RebM 4 mM, mogroside V 5 mM, erythritol 200 mM, D-allulose 500 mM, thaumatin 100 mM
# T6 sequence (Q7RTR8 1-314): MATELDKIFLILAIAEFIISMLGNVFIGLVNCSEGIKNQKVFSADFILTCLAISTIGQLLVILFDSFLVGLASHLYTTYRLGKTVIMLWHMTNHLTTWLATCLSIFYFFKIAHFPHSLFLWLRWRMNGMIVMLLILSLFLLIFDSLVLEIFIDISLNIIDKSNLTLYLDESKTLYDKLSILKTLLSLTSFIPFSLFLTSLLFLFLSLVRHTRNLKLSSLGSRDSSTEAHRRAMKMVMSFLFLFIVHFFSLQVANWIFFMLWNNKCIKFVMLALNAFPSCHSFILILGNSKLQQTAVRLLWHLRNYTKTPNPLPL
# Description: as §1
# TAS2R10 = molecular target: T7, TAS2R10 (Homo sapiens, UniProt Q9NYW0); assay: Calcium mobilization assay, HEK293T-Gα16gust44 cells expressing TAS2R10; conditions: for Response of TAS2R10: maximal concentration tested: sucralose 100 mM, neotame 30 µM, Ace-K 300 mM, RebA 4 mM, RebM 4 mM, mogroside V 5 mM, erythritol 200 mM, D-allulose 500 mM, thaumatin 100 mM
# T7 sequence (Q9NYW0 1-307): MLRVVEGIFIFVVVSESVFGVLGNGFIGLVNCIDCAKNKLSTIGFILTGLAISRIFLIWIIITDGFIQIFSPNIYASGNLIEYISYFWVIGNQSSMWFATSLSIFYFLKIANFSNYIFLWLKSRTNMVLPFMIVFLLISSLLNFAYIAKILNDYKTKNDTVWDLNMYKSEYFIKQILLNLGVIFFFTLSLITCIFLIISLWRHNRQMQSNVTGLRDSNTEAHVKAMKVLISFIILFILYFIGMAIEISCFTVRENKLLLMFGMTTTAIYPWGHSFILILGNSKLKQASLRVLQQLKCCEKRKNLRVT
# Description: as §2
# [2] = ref Schiffman and Gatlin (1993)
Compound,Response of TAS2R50 (TAS2R50),Sweetness potency ([1]; ref Ko et al. (2020)),Response of TAS2R3 (TAS2R3),Response of TAS2R5 (TAS2R5),Response of TAS2R19 (TAS2R19),Response of TAS2R4 (TAS2R4),Response of TAS2R42 (TAS2R42),Response of TAS2R10 (TAS2R10),Sweetness potency ([1]; ref Prakash et al. (2014)),Sweetness potency ([1]; ref Fujimaru et al. (2012)),"Sweetness potency [1, 2]",Sweetness potency ([1]; ref van der Wel and Loeve (1972)),Sweetness potency ([1]; ref Nofre and Tinti (2000)),Sweetness potency ([1]; ref Jia and Yang (2009)),EC50 (TAS2R10; TAS2R10 EC50)
O=C(CO)[C@H](O)[C@H](O)[C@H](O)CO [D-allulose],−,0.6^h,−,−,+,−,+,−,,,,,,,
"C=C1C[C@@]23CC[C@H]4[C@@](C)(CCC[C@@]4(C)C(=O)O[C@@H]4O[C@H](CO)[C@@H](O)[C@H](O[C@@H]5O[C@H](CO)[C@@H](O)[C@H](O)[C@H]5O)[C@H]4O[C@@H]4O[C@H](CO)[C@@H](O)[C@H](O)[C@H]4O)[C@@H]2CC[C@]1(O[C@@H]1O[C@H](CO)[C@@H](O)[C@H](O[C@@H]2O[C@H](CO)[C@@H](O)[C@H](O)[C@H]2O)[C@H]1O[C@@H]1O[C@H](CO)[C@@H](O)[C@H](O)[C@H]1O)C3 [RebM, Rebaudioside M]",−,,−,−,−,−,−,−,250^d,,,,,,
"OC[C@@H](O)[C@@H](O)CO [Erythritol, erythritol]",−,,−,−,−,−,−,−,,0.9^f,,,,,
"CC1=CC(=O)NS(=O)(=O)O1 [Ace-K, acesulfame-K]",−,,−,−,−,−,−,−,,,200^g,,,,
thaumatin,−,,−,−,−,−,−,−,,,,"100,000^b",,,
COC(=O)[C@H](Cc1ccccc1)NC(=O)[C@H](CC(=O)O)NCCC(C)(C)C [Neotame],−,,−,−,−,−,−,−,,,,,"10,000^a",,
"C[C@H](CC[C@@H](O[C@@H]1O[C@H](CO[C@@H]2O[C@H](CO)[C@@H](O)[C@H](O)[C@H]2O)[C@@H](O)[C@H](O)[C@H]1O[C@@H]1O[C@H](CO)[C@@H](O)[C@H](O)[C@H]1O)C(C)(C)O)[C@H]1CC[C@@]2(C)[C@@H]3CC=C4[C@@H](CC[C@H](O[C@@H]5O[C@H](CO[C@@H]6O[C@H](CO)[C@@H](O)[C@H](O)[C@H]6O)[C@@H](O)[C@H](O)[C@H]5O)C4(C)C)[C@]3(C)[C@H](O)C[C@]12C [Mogroside V, mogroside V]",−,,−,−,−,−,−,−,,,,,,500^c,
"OC[C@H]1O[C@H](O[C@]2(CCl)O[C@H](CCl)[C@@H](O)[C@@H]2O)[C@H](O)[C@@H](O)[C@H]1Cl [Sucralose, sucralose]",−,,−,−,−,−,−,#^a,,,600^g,,,,17 mM and ≥ 3 mM
